The record followed here is US9233979B2, “Compounds that are ERK inhibitors” (Merck Sharp & Dohme Corp., priority 2012, dated 2016).

SMILES strings stand for the structures.

Sequence of phosphorylated active hERK2 enzyme (P28482 whole entry): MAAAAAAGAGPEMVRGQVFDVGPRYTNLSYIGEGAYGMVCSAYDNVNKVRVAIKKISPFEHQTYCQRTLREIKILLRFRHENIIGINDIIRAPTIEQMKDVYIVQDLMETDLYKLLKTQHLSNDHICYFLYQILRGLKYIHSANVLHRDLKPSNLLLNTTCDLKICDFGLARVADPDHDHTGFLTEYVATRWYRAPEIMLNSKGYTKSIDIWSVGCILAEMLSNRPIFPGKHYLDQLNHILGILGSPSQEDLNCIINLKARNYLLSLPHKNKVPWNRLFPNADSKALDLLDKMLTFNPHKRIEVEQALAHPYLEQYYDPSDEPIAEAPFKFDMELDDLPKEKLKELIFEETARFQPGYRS

The first experiment has as its target phosphorylated active hERK2 enzyme (Homo sapiens (Human), UniProt P28482). The experiment can be described thus: Active Human ERK2 (hERK2) Activity Assay (IMAP-FP). The settings on record: Table 5, 0.5 nM hERK2, 30 μM ATP, 10 point titration, read-out: AERK2 IC50. It is filed as biochemical. In a few lines: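 IMAP detection beads in buffer with 24 mM NaCl stopped the reaction, and fluorescence polarization was read after 60 min binding.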
As to `COCCNC(=O)Nc1cc2[nH]nc(N3CC(OC)C3)c2cn1` [Example 7, 1-[3-(3-methoxyazetidin-1-yl)-1H-pyrazolo[4,3-c]pyridin-6-yl]-3-(2-methoxyethyl)urea], the IC50 came to 342 nM.

As for `C[C@@H](NC(=O)Nc1cc2[nH]nc(N3CCN(C)CC3)c2cn1)c1ccccc1` [Example 13, 1-[3-(4-methylpiperazin-1-yl)-1H-pyrazolo[4,3-c]pyridin-6-yl]-3-[(1R)-1-phenylethyl]urea], the IC50 worked out at 28 nM.

As for `C[C@@H](NC(=O)Nc1cc2[nH]nc(N3CCOCC3)c2cn1)c1ccc(F)cc1` [Example 31, 1-[(1R)-1-(4-fluorophenyl)ethyl]-3-(3-morpholin-4-yl-1H-pyrazolo[4,3-c]pyridin-6-yl)urea], the IC50 worked out at 0.4 nM.

Still in this experiment, the particulars now being: Table 6, 0.5 nM hERK2, 30 μM ATP, 10 point titration, read-out: AERK2 IC50.
With `CC(C)(O)[C@@H](NC(=O)Nc1cc2[nH]nc(N3CCc4ncsc4C3)c2cn1)c1ccccc1` [Example 124, 1-[3-(6,7-dihydro[1,3]thiazolo-[5,4-c]pyridin-5(4H)-yl)-1H-pyrazolo[4,3-c]pyridin-6-yl]-3-[(1S)-2-hydroxy-2-methyl-1-phenylpropyl]urea], the concentration for half-maximal inhibition (IC50) turned out to be 0.3 nM.

With `COC[C@@H](NC(=O)Nc1cc2[nH]nc(NCC(F)(F)F)c2cn1)c1ccccc1` [Example 342, 1-[(1S)-2-methoxy-1-phenylethyl]-3-{3-[(2,2,2-trifluoro-ethyl)amino]-1H-pyrazolo[4,3-c]-pyridin-6-yl}urea], the IC50 worked out at 0.9 nM.

For `COc1ccccc1Nc1n[nH]c2cc(NC(=O)N[C@H](C)c3ccccc3)ncc12` [Example 121, 1-{3-[(2-methoxyphenyl)amino]-1H-pyrazolo[4,3-c]pyridin-6-yl}-3-[(1R)-1-phenylethyl]urea], the IC50 is 24.5 nM.

For `CCNc1n[nH]c2cc(NC(=O)NCc3cccc(F)c3)ncc12` [Example 241, 1-[3-(ethylamino)-1H-pyrazolo[4,3-c]pyridin-6-yl]-3-(3-fluorobenzyl)-urea], the IC50 turned out to be 11.8 nM.

For the compound `CCN1CCc2nc(NC(=O)N[C@H](C)c3ccccc3)cc3[nH]nc1c23` [Example 141, (R)-1-(3-ethyl-1,3,4,5-tetrahydropyrazolo[3,4,5-de][1,6]naphthyridin-7-yl)-3-(1-phenylethyl)urea], the IC50 amounted to 15.4 nM.

Regarding `C[C@@H](NC(=O)Nc1cc2[nH]nc(N3CC(C)(O)C3)c2cn1)c1ccccc1` [Example 92, 1-[3-(3-hydroxy-3-methylazetidin-1-yl)-1H-pyrazolo[4,3-c]-pyridin-6-yl]-3-[(1R)-1-phenylethyl]urea], the IC50 turned out to be 27.3 nM.

Regarding `CO[C@@H]1CCC[C@H]1NC(=O)Nc1cc2[nH]nc(N)c2cn1` [Example 416, 1-(3-amino-1H-pyrazolo[4,3-c]pyridin-6-yl)-3-[(1R,2R)-2-methoxy-cyclopentyl]urea], the IC50 was found to be 483 nM.

For `C[C@@H](NC(=O)Nc1cc2[nH]nc(NCC(F)(F)F)c2cn1)c1ccccc1` [Example 341, 1-[(1R)-1-phenylethyl]-3-{3-[(2,2,2-trifluoro-ethyl)amino]-1H-pyrazolo[4,3-c]-pyridin-6-yl}urea], the IC50 came out at 2.4 nM.

For `C[C@@H](NC(=O)Nc1cc2[nH]nc(N3CCCC3=O)c2cn1)c1ccccc1` [Example 408, 1-[3-(2-oxopyrrolidin-1-yl)-1H-pyrazolo[4,3-c]-pyridin-6-yl]-3-[(1R)-1-phenylethyl]urea], the half-inhibitory concentration (IC50) was 101 nM.

In the case of `C[C@@H](NC(=O)Nc1cc2[nH]nc(NC3CNC3)c2cn1)c1ccccc1` [Example 168, 1-[3-(azetidin-3-ylamino)-1H-pyrazolo[4,3-c]-pyridin-6-yl]-3-[(1R)-1-phenylethyl]urea], the IC50 amounted to 31.7 nM.

Regarding `CCNc1n[nH]c2cc(NC(=O)N[C@H](C)c3ccccc3)nc(COC)c12` [Example 71, (R)-1-(3-(ethylamino)-4-(methoxymethyl)-1H-pyrazolo[4,3-c]pyridin-6-yl)-3-(1-phenylethyl)urea], the IC50 amounted to 4.4 nM.

On to `CC(CC(C)(C)O)Nc1n[nH]c2cc(NC(=O)N[C@H](C)c3ccccc3)ncc12` (stereo partly drawn) [Example 191, 1-{3-[(3-hydroxy-1,3-dimethylbutyl)-amino]-1H-pyrazolo[4,3-c]-pyridin-6-yl}-3-[(1R)-1-phenylethyl]urea], for which the IC50 worked out at 64.3 nM.

Consider `Cc1nc(NC(=O)N[C@H](C)c2ccccc2)cc2[nH]nc(N)c12` [Example 333, (R)-1-(3-amino-4-methyl-1H-pyrazolo[4,3-c]pyridin-6-yl)-3-(1-phenylethyl)urea], for which the IC50 is 0.7 nM.

Turning to `COc1ccccc1CNC(=O)Nc1cc2[nH]nc(N)c2cn1` [Example 268, 1-(3-amino-1H-pyrazolo[4,3-c]pyridin-6-yl)-3-(2-methoxy-benzyl)urea], the IC50 came to 10.7 nM.

On to `CC(C)(O)[C@@H](NC(=O)Nc1cc2[nH]nc(N3CCOCC3)c2cn1)c1ccc(F)cc1` [Example 438, 1-[(1S)-1-(4-fluorophenyl)-2-hydroxy-2-methylpropyl]-3-(3-morpholin-4-yl-1H-pyrazolo[4,3-c]-pyridin-6-yl)urea], for which the IC50 is 0.4 nM.

Consider `CC(=O)Nc1n[nH]c2cc(NC(=O)N[C@H](COC(F)F)c3ccccc3)ncc12` [Example 364, N-[6-({[(1S)-2-(difluoromethoxy)-1-phenylethyl]-carbamoyl}amino)-1H-pyrazolo[4,3-c]pyridin-3-yl]-acetamide], for which the IC50 was 0.3 nM.

In the case of `C[C@@H](NC(=O)Nc1cc2[nH]nc(NC3CCC(F)(F)CC3)c2cn1)c1ccccc1` [Example 195, 1-{3-[(4,4-difluorocyclohexyl)amino]-1H-pyrazolo[4,3-c]-pyridin-6-yl}-3-[(1R)-1-phenylethyl]urea], the IC50 turned out to be 10.2 nM.

Take `Nc1n[nH]c2cc(NC(=O)N[C@@H](c3ccccc3)C3(O)CCCC3)ncc12` [Example 260, 1-(3-amino-1H-pyrazolo[4,3-c]-pyridin-6-yl)-3-[(S)-(1-hydroxy-cyclopentyl)-(phenyl)methyl]-urea]: the IC50 stood at 0.4 nM.

As to `C[C@@H](NC(=O)Nc1cc2[nH]nc(NC(=O)OCC(C)(C)C)c2cn1)c1ccccc1` [Example 224, 2,2-dimethylpropyl [6-({[(1R)-1-phenylethyl]-carbamoyl}amino)-1H-pyrazolo[4,3-c]pyridin-3-yl]-carbamate], the concentration for half-maximal inhibition (IC50) turned out to be 355 nM.

Consider `COc1nc(NC(=O)N[C@H](C)c2ccccc2)cc2[nH]nc(N)c12` [Example 452, 1-(3-amino-4-methoxy-1H-pyrazolo[4,3-c]-pyridin-6-yl)-3-[(1R)-1-phenylethyl]urea], for which the IC50 is 0.7 nM.

Take `CC(C)OC(=O)Nc1n[nH]c2cc(NC(=O)N[C@H](C)c3ccccc3)ncc12` [Example 223, 1-methylethyl[6-({[(1R)-1-phenylethyl]-carbamoyl}amino)-1H-pyrazolo[4,3-c]pyridin-3-yl]-carbamate]: the half-inhibitory concentration (IC50) is 12.4 nM.

In the case of `C[C@@H](NC(=O)Nc1cc2[nH]nc(N[C@H](C)C(F)F)c2cn1)c1ccccc1` [Example 355, 1-(3-{[(1R)-2,2-difluoro-1-methyl-ethyl]amino}-1H-pyrazolo[4,3-c]-pyridin-6-yl)-3-[(1R)-1-phenylethyl]urea], the concentration for half-maximal inhibition (IC50) amounted to 2.9 nM.

As for `COCC(C)(C)Nc1n[nH]c2cc(NC(=O)N[C@H](C)c3ccccc3)ncc12` [Example 361, 1-{3-[(2-methoxy-1,1-dimethylethyl)-amino]-1H-pyrazolo[4,3-c]-pyridin-6-yl}-3-[(1R)-1-phenylethyl]urea], the IC50 turned out to be 385 nM.

For the compound `CC(C)(O)[C@@H](NC(=O)Nc1cc2[nH]nc(N3CCC3)c2cn1)c1ccc(F)cc1` [Example 100, 1-(3-azetidin-1-yl-1H-pyrazolo[4,3-c]-pyridin-6-yl)-3-[(1S)-1-(4-fluorophenyl)-2-hydroxy-2-methylpropyl]urea], the IC50 amounted to 1.1 nM.

On to `CC(C)(O)[C@@H](NC(=O)Nc1cc2[nH]nc(N3CC4CC3CO4)c2cn1)c1ccccc1` (stereo partly drawn) [Example 447, 1-[(1S)-2-hydroxy-2-methyl-1-phenylpropyl]-3-[3-(2-oxa-5-azabicyclo[2.2.1]-hept-5-yl)-1H-pyrazolo[4,3-c]-pyridin-6-yl]urea], for which the IC50 came out at 1.5 nM.

On to `CC(Nc1n[nH]c2cc(NC(=O)N[C@H](COC(F)F)c3ccccc3)ncc12)C(F)(F)F` (stereo partly drawn) [Example 428, 1-[(1S)-2-(difluoromethoxy)-1-phenylethyl]-3-{3-[(2,2,2-trifluoro-1-methylethyl)-amino]-1H-pyrazolo[4,3-c]-pyridin-6-yl}urea], for which the IC50 was determined as 1.3 nM.

For `CCNc1n[nH]c2cc(NC(=O)NC(C)c3ccc(F)c(F)c3)ncc12` (centres unmarked) [Example 251, 1-[1-(3,4-difluoro-phenyl)ethyl]-3-[3-(ethylamino)-1H-pyrazolo[4,3-c]-pyridin-6-yl]urea], the concentration for half-maximal inhibition (IC50) worked out at 3.2 nM.

In the case of `C[C@@H]1CN(c2n[nH]c3cc(NC(=O)NC(c4ccc(F)cc4)C(C)(C)O)ncc23)C[C@H](C)O1` (stereo partly drawn) [Example 435, 1-{3-[(2R,6S)-2,6-dimethylmorpholin-4-yl]-1H-pyrazolo[4,3-c]-pyridin-6-yl}-3-[1-(4-fluorophenyl)-2-hydroxy-2-methylpropyl]urea], the IC50 turned out to be 1.6 nM.

`CCNc1n[nH]c2cc(NC(=O)NC(C)c3ccc(C)nc3)ncc12` (centres unmarked) [Example 280, 1-[3-(ethylamino)-1H-pyrazolo[4,3-c]pyridin-6-yl]-3-[1-(6-methyl-pyridin-3-yl)-ethyl]urea]: the IC50 turned out to be 143 nM.

With `CCOc1ncccc1CNC(=O)Nc1cc2[nH]nc(N)c2cn1` [Example 262, 1-(3-amino-1H-pyrazolo[4,3-c]pyridin-6-yl)-3-[(2-ethoxypyridin-3-yl)methyl]urea], the IC50 was 20.7 nM.

Regarding `C[C@@H](NC(=O)Nc1cc2[nH]nc(NC3COC3)c2cn1)c1ccccc1` [Example 188, 1-[3-(oxetan-3-yl-amino)-1H-pyrazolo[4,3-c]pyridin-6-yl]-3-[(1R)-1-phenylethyl]urea], the IC50 stood at 146 nM.

Take `C[C@@H](NC(=O)Nc1cc2[nH]nc(NC3=CC(=O)CC3)c2cn1)c1ccccc1` [Example 73, (R)-1-(3-((3-oxocyclopent-1-en-1-yl)amino)-1H-pyrazolo[4,3-c]pyridin-6-yl)-3-(1-phenylethyl)urea]: the IC50 was 39.2 nM.

The IC50 is the concentration needed to halve the response being measured.
